# Laboratory results reported in patent publication US10130655B2, “Composition and method for pre-surgical skin disinfection” (GOJO INDUSTRIES, INC., priority 2006, dated 2018).
# Assay: Irritation potential, independent laboratory testing (Total Cumulative Irritation, Berger & Bowman)
# Conditions: in vivo
# From the text: Independent laboratory testing compared irritation potential of commercial products, controls, and a disinfecting composition according to the present invention.
structure (smiles),measurement,value
CCCCCCCCCCCCOS(=O)(=O)[O-].[Na+] [Sodium Lauryl Sulfate],Berger & Bowman Classification,Possibly Mild in use
same,CIT Score (Total Cumulative Irritation),1321.0
